Key:
BACE1 = test: Brain BACE1 level (ELISA); assay type: in vivo, rat; design: reduction of BACE1 levels: concentration or dose not given beside the values; conditions: AlCl3-induced AD rats; for BACE1 (ng/mL): mean ± SE, n = 6
Description: (§1) The brain tissues of the rats were removed and rigorously washed in isotonic saline 24 h after they were euthanized following the last behavioral test. For histological investigation, four brains per group were preserved for the whole night in 10% neutral buffered formalin. The remaining six brains were split into two sections each. In order to create a 10% homogenate (w/v), the first component was instantaneously homogenized using an ice-cold solution that included 300 mM sucrose and 50 mM Tris-HCl (pH 7.4). The homogenate was centrifuged at 1800× g for 10 min at 4 °C for biochemical tests, and the supernatant was thereafter kept at −20 °C. The second portion was set aside for use in RT-PCR analysis at −80 °C [94]. […]

Amyloid-β = test: Brain amyloid-β level (ELISA); assay type: in vivo, rat; design: reduction of β-amyloid levels: concentration or dose not given beside the values; conditions: AlCl3-induced AD rats; for Amyloid-β (ng/g Tissue): brain, mean ± SE, n = 6
Description: (§2) The brain tissues of the rats were removed and rigorously washed in isotonic saline 24 h after they were euthanized following the last behavioral test. For histological investigation, four brains per group were preserved for the whole night in 10% neutral buffered formalin. The remaining six brains were split into two sections each. In order to create a 10% homogenate (w/v), the first component was instantaneously homogenized using an ice-cold solution that included 300 mM sucrose and 50 mM Tris-HCl (pH 7.4). The homogenate was centrifuged at 1800× g for 10 min at 4 °C for biochemical tests, and the supernatant was thereafter kept at −20 °C. The second portion was set aside for use in RT-PCR analysis at −80 °C [94].
(§3) See Supplementary Information.

5-HT = test: Brain 5-HT level (fluorometric); assay type: in vivo, rat; conditions: AlCl3-induced AD rats; for 5-HT (ng/g Tissue): brain tissue, mean ± SE, n = 6
Description: as §2
(§4) Brain monoamine levels were promptly assessed following the rats’ euthanasia to prevent changes in the substance’s concentration. Dopamine (DA), norepinephrine (NE), and serotonin (5-HT) fluorometric tests were conducted on brain tissue homogenate using the Ciarlone method. […] The concentrations were articulated as nanograms per gram of fresh tissue using the fluorescence of reference solutions [95].

DA = test: Brain DA level (fluorometric); assay type: in vivo, rat; conditions: AlCl3-induced AD rats; for DA (ng/g Tissue): brain tissue, mean ± SE, n = 6
Description: as §2, §4

NE = test: Brain NE level (fluorometric); assay type: in vivo, rat; conditions: AlCl3-induced AD rats; for NE (nmol/g Tissue): brain tissue, mean ± SE, n = 6
Description: as §2, §4

TNF-α = test: Brain TNF-α level (ELISA); assay type: in vivo, rat; conditions: AlCl3-induced AD rats; for TNF-α (pg/g Tissue): mean ± SE, n = 6
Description: as §1

TLR4 = TLR4 mRNA expression (RT-qPCR); assay type: in vivo, rat; design: reduction of TLR4 mRNA expression: concentration or dose not given beside the values; conditions: AlCl3-induced AD rats; for TLR4: mRNA expression level, mean ± SE, n = 6
Description: as §2, §3

NFκβ = NFκβ mRNA expression (RT-qPCR); assay type: in vivo, rat; design: reduction of NFκβ mRNA expression: concentration or dose not given beside the values; conditions: AlCl3-induced AD rats; for NFκβ: mRNA expression level, mean ± SE, n = 6
Description: as §2, §3

Caspase-1 = Caspase-1 gene expression (RT-qPCR); assay type: in vivo, rat; design: reduction of Caspase-1 levels: concentration or dose not given beside the values; conditions: AlCl3-induced AD rats; for Caspase-1: gene expression, mean ± SE, n = 6
Description: as §2, §3

Bcl-2 = Bcl-2 gene expression (RT-qPCR); assay type: in vivo, rat; conditions: AlCl3-induced AD rats; for Bcl-2: gene expression, mean ± SE, n = 6
Description: as §2, §3

GSK3β = GSK3β gene expression (RT-qPCR); assay type: in vivo, rat; conditions: AlCl3-induced AD rats; for GSK3β: gene expression, mean ± SE, n = 6
Description: as §2, §3

SOD = test: Brain SOD activity (colorimetric); assay type: in vivo, rat; conditions: AlCl3-induced AD rats; for SOD(U/g): brain tissue, mean ± SE, n = 6
Description: as §2
(§5) The SOD enzyme activity was estimated using the Marklund et al. method, which is founded on the enzyme’s capacity to decrease the nitro blue tetrazolium dye at a wavelength of 540 nm. To evaluate the TAC, a colorimetric approach was employed to estimate the amount of hydrogen peroxide that remains after 3,5-dichloro-2-hydroxybenzene sulphonate is converted to a colored product at 660 nm.

TAC = test: Brain TAC (colorimetric); assay type: in vivo, rat; conditions: AlCl3-induced AD rats; for TAC (µmol/g Tissue): brain tissue, mean ± SE, n = 6
Description: as §2, §5

Nrf-2 = Nrf-2 mRNA expression (RT-qPCR); assay type: in vivo, rat; conditions: AlCl3-induced AD rats; for Nrf-2: mRNA expression in brain tissue, mean ± SE, n = 6
Description: as §2, §3

HO-1 = HO-1 mRNA expression (RT-qPCR); assay type: in vivo, rat; conditions: AlCl3-induced AD rats; for HO-1: mRNA expression in brain tissue, mean ± SE, n = 6
Description: as §2, §3

BChE = biological target: T1, BChE (Homo sapiens, UniProt P06276); test: biochemical; conditions: for IC50: fluorescence kit, triplicate; for Selectivity Index BChE/AChE: ratio of IC50 BChE to IC50 AChE, <1 = preferential BChE inhibition
T1 construct: purchased Invitrogen EIABCHEF
Description: Using an Invitrogen BChE test kit (Catalog #EIABCHEF), the assay was performed in compliance with the supplier’s instructions. The study was conducted using black 96-well plates. […] Each well was then filled with 50 μL of the reaction mixture, which consisted of fluorescence detection reagent and butyrylthiocholine iodide in assay buffer. The plate was then left to incubate for 20 min at room temperature. Finally, excitation at 390 nm was used to observe emission at 510 nm using a microplate reader. Background fluorescence was further eliminated for each data point.

T1 sequence (P06276 29-602): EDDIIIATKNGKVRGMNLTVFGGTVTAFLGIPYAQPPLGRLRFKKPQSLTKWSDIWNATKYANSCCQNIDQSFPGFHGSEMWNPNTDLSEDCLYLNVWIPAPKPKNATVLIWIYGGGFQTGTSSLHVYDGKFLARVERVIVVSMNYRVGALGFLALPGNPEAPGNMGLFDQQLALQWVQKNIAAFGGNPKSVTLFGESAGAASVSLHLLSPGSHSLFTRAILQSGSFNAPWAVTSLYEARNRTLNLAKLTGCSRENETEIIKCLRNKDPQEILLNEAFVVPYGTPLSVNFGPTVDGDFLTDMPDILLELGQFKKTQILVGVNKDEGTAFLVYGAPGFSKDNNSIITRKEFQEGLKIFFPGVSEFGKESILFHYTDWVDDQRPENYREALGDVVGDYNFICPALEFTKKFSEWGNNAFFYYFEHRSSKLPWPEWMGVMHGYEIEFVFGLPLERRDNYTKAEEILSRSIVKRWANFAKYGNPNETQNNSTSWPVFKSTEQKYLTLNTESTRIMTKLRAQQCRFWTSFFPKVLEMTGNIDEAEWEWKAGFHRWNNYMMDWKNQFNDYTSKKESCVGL

Compound	BACE1 (ng/mL) (BACE1)	reduction of β-amyloid levels (Amyloid-β)	Amyloid-β (ng/g Tissue) (Amyloid-β)	elevation of 5-HT levels (5-HT)	5-HT (ng/g Tissue) (5-HT)	DA (ng/g Tissue) (DA)	NE (nmol/g Tissue) (NE)	decline in TNF-α levels (TNF-α)	TNF-α (pg/g Tissue) (TNF-α)	TLR4 (TLR4)	NFκβ (NFκβ)	Caspase-1 (Caspase-1)	Bcl-2 (Bcl-2)	GSK3β (GSK3β)	SOD(U/g) (SOD)	improvement of TAC levels (TAC)	TAC (µmol/g Tissue) (TAC)	Nrf-2 (Nrf-2)	HO-1 (HO-1)	IC50 (BChE)	also measured
CCOc1ccc(N2CC(=O)Oc3sc4c(c3C2=O)CCCCC4)cc1 [Compound 14, 4-(4-Ethoxyphenyl)-3,4,7,8,9,10-hexahydro-6H-cyclohepta[4,5]thieno[3,2-f][1,4]oxazepine-2,5-dione]	16.66 ± 0.38 ^abc ng/mL	58.4%	11.66 ± 0.17 ^abc ng/g Tissue	4.5 fold	8.22 ± 0.19 ^abc ng/g Tissue	51.88 ± 2.66 ^abc ng/g Tissue	386.7 ± 2.66 ^abc nmol/g Tissue	58.4%	73.21 ± 0.58 ^abc pg/g Tissue	3.60 ± 0.12 ^abc	3.73 ± 0.04 ^abc	5.08 ± 0.050 ^abc	0.70 ± 0.004 ^abc	3.13 ± 0.07 ^abc	2.38 ± 0.78 ^abc U/g	3.8 times	36.96 ± 0.51 ^abc µmol/g Tissue	0.50 ± 0.020 ^abc	0.64 ± 0.009 ^abc	2.93 ± 0.1 µM	reduction of BACE1 levels (BACE1): 43.8%; elevation of DA levels (DA): 4.3 fold; rise in the level of NE (NE): 2.1 times; reduction of TLR4 mRNA expression (TLR4): 62.6%; reduction of NFκβ mRNA expression (NFκβ): 56%; reduction of Caspase-1 levels (Caspase-1): 46.6%; upregulation of Bcl-2 gene expression (Bcl-2): 5.8 fold; elevation of Nrf-2 mRNA expression (Nrf-2): 3.1 fold; elevation of HO-1 mRNA expression (HO-1): 5.3 fold; Selectivity Index BChE/AChE (BChE): 7.50
CCOC(=O)c1c(OC(=O)CCl)sc2c1CCCCC2 [Compound 4, Ethyl 2-(2-chloroacetoxy)-5,6,7,8-tetrahydro-4H-cyclohepta[b]thiophene-3-carboxylate]	21.89 ± 0.27 ^abc ng/mL	38.9%	17.05 ± 0.2 ^abc ng/g Tissue	2.4 fold	4.29 ± 0.76 ^abc ng/g Tissue	30.69 ± 1.2 ^abc ng/g Tissue	282.6 ± 1.2 ^abc nmol/g Tissue	35.4%	113.6 ± 0.83 ^abc pg/g Tissue	6.39 ± 0.12 ^abc	5.77 ± 0.19 ^abc	6.46 ± 0.120 ^abc	0.38 ± 0.020 ^abc	6.86 ± 0.15 ^abc	1.75 ± 0.31 ^abc U/g	2.7 times	25.87 ± 0.965 ^abc µmol/g Tissue	0.31 ± 0.004 ^abc	0.39 ± 0.007 ^abc	56.2 ± 1.93 µM	reduction of BACE1 levels (BACE1): 26.2%; reduction of GSK3β gene expression (GSK3β): 32.7%; SOD activity levels (SOD; brain): 1.75 U/g tissue; Selectivity Index BChE/AChE (BChE): 1.36
O=C1CN(c2ccccc2)C(=O)c2c(sc3c2CCCCC3)O1 [Compound 11, 4-Phenyl-3,4,7,8,9,10-hexahydro-6H-cyclohepta[4,5]thieno[3,2-f][1,4]oxazepine-2,5-dione]	18.83 ± 0.13 ^abc ng/mL	48.9%	14.25 ± 0.16 ^abc ng/g Tissue	5.0 fold	9.13 ± 0.36 ^abc ng/g Tissue	54.63 ± 6.11 ^abc ng/g Tissue	321.2 ± 6.11 ^abc nmol/g Tissue	43.6%	99.23 ± 0.42 ^abc pg/g Tissue	5.56 ± 0.1 ^abc	4.93 ± 0.08 ^abc	5.92 ± 0.040 ^abc	0.52 ± 0.020 ^abc	2.34 ± 0.06 ^abc	2.46 ± 0.32 ^abc U/g	4 times	38.23 ± 0.50 ^abc µmol/g Tissue	0.35 ± 0.006 ^abc	0.53 ± 0.004 ^abc	13.8 ± 0.48 µM	reduction of BACE1 levels (BACE1): 36.5%; elevation of DA levels (DA): 4.6 fold; rise in the level of NE (NE): 1.7 times; reduction of TLR4 mRNA expression (TLR4): 42.2%; reduction of NFκβ mRNA expression (NFκβ): 41.8%; reduction of Caspase-1 levels (Caspase-1): 37.8%; upregulation of Bcl-2 gene expression (Bcl-2): 4.3 fold; elevation of HO-1 mRNA expression (HO-1): 4.4 fold; Selectivity Index BChE/AChE (BChE): 5.18
COc1ccc(N2CC(=O)Oc3sc4c(c3C2=O)CCCCC4)cc1 [Compound 16, 4-(4-Methoxyphenyl)-3,4,7,8,9,10-hexahydro-6H-cyclohepta[4,5]thieno[3,2-f][1,4]oxa-zepine-2,5-dione]	17.44 ± 0.23 ^abc ng/mL	55.4%	12.44 ± 0.14 ^abc ng/g Tissue	5.9 fold	10.65 ± 0.71 ^abc ng/g Tissue	52.96 ± 1.52 ^abc ng/g Tissue	366.4 ± 1.52 ^abc nmol/g Tissue	51.6%	85.17 ± 0.46 ^abc pg/g Tissue	4.43 ± 0.08 ^abc	4.70 ± 0.12 ^abc	5.04 ± 0.130 ^abc	0.63 ± 0.020 ^abc	2.18 ± 0.10 ^abc	2.92 ± 0.20 ^abc U/g	4.4 times	42.42 ± 0.84 ^abc µmol/g Tissue	0.47 ± 0.005 ^abc	0.50 ± 0.020 ^abc	5.23 ± 0.18 µM	elevation of DA levels (DA): 4.4 fold; rise in the level of NE (NE): 2 times; reduction of TLR4 mRNA expression (TLR4): 53.9%; reduction of NFκβ mRNA expression (NFκβ): 44.5%; reduction of Caspase-1 levels (Caspase-1): 47%; upregulation of Bcl-2 gene expression (Bcl-2): 5.2 fold; elevation of Nrf-2 mRNA expression (Nrf-2): 2.9 fold; elevation of HO-1 mRNA expression (HO-1): 4.1 fold; Selectivity Index BChE/AChE (BChE): 6.89
CCOC(=O)c1c(O)sc2c1CCCCC2 [Compound 2, Ethyl 2-hydroxy-5,6,7,8-tetrahydro-4H-cyclohepta[b]thiophene-3-carboxylate]	23.60 ± 0.2 ^abc ng/mL	30.2%	19.52 ± 0.15 ^abc ng/g Tissue	1.7 fold	3.16 ± 0.63 ^abc ng/g Tissue	24.71 ± 1.62 ^abc ng/g Tissue	256.9 ± 1.62 ^abc nmol/g Tissue	31%	121.4 ± 0.97 ^abc pg/g Tissue	7.66 ± 0.12 ^abc	6.53 ± 0.08 ^abc	7.46 ± 0.120 ^abc	0.27 ± 0.007 ^abc	8.80 ± 0.12 ^abc	0.68 ± 0.26 ^abc U/g	1.9 times	18.26 ± 0.395 ^abc µmol/g Tissue	0.25 ± 0.008 ^abc	0.34 ± 0.032 ^abc	5.72 ± 0.2 µM	reduction of BACE1 levels (BACE1): 20.4%; reduction of GSK3β gene expression (GSK3β): 13.7%; Selectivity Index BChE/AChE (BChE): 5.21
